The target of the test is Proto-oncogene tyrosine-protein kinase Src (Homo sapiens, UniProt P12931). Briefly: Homogeneous Time-resolved Fluorescence (HTRF) Assay. As for the experimental part:
Kinase assays were performed using the europium/APC detection format (LANCE, Perkin Elmer). HTRF is based on the proximity of europium cryptate (donor fluorophore)-labeled antiphosphotyrosine and streptavidin labeled with APC(allophycocyanin), which have been brought together by a binding reaction.
Background: In TR-FRET formats the signal depends on donor and acceptor labels being close together.

In general, IC50 refers to the concentration at which inhibition is half-maximal. Lower therefore signals greater potency in that assay.

Chain of Proto-oncogene tyrosine-protein kinase Src (P12931 2-536 limits assumed): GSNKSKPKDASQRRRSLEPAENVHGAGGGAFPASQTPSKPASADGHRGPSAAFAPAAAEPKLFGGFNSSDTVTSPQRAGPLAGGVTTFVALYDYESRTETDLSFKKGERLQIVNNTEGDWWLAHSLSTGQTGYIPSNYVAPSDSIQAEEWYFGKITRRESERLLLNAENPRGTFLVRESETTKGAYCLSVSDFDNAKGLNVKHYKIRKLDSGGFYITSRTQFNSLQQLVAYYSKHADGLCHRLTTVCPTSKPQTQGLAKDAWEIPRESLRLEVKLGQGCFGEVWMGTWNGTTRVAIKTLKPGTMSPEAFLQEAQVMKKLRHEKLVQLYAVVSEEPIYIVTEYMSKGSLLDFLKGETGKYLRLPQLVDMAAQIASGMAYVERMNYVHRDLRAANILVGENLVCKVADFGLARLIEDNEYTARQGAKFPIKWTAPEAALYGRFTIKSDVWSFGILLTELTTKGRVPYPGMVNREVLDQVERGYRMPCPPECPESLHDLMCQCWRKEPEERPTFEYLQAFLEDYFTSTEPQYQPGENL

`COc1cc2c(Nc3cc(OC)c(OC)c(OC)c3)c(C#N)cnc2cc1/C=C/c1cc[n+]([O-])cc1` [4-[(E)-2-{3-cyano-6-methoxy-4-[(3,4,5-trimethoxyphenyl)amino]quinolin-7-yl}ethenyl]-1-oxidopyridin-1-ium]: 11 nM corresponded to half-maximal inhibition (IC50).
The value for `N#Cc1cnc2cc(/C=C/c3ccncc3)ccc2c1NCc1cc(Cl)cc(Cl)c1` [4-{[(3,5-dichlorophenyl)methyl]amino}-7-[(E)-2-(pyridin-4-yl)ethenyl]quinoline-3-carbonitrile] was 1000 nM.

For the origin of these results see BindingDB's records for doi:10.1016/j.bmcl.2005.01.004 (Wyeth-Ayerst Research, 2005).
